# Data from patent US20220071921A1, “COMPOUNDS FOR PREVENTING AND TREATING SKIN OR MUCOSAL AFFECTIONS HAVING AN INFLAMMATORY COMPONENT” (GIULIANI S.P.A., priority 2018, published 2022).
# Key:
# Dermcidin [1] = test: Dermcidin immunofluorescent staining in human microdissected scalp hair follicle organ culture; format: cell-based; details: 500 μM, 3 and 5 days, ex vivo
# Method: (§1) Human scalp samples were obtained 1 day after face-lifting procedure (i.e. after overnight transport from collaborating surgeons) and used at the same day for microdissecting human anagen VI scalp HFs. […] Microdissected human scalp HFs were cultured at 37° C. with 5% CO2 in a minimal media of William's E media (WEM, Gibco, Life technologies) supplemented with 2 mM of L-glutamine (Gibco), 10 ng/ml hydrocortisone (Sigma-Aldrich), 10 μg/ml insulin (Sigma-Aldrich) and 1% penicillin/streptomycin mix (Gibco) (WEM). After microdissection, the HFs were first incubated in WEM for 24 hrs for re-equilibration.
# (§2) After 24 hours, WEM medium was replaced and HFs were treated with vehicle (0.1% DMSO), sandal pentanol 500 μM, for 3 or 5 days for (immuno-)histology or 6 hours for microarray. Culture medium was replaced every second day and after […], HFs were then embedded in cryomatrix (Fisher Scientific), and snap frozen in liquid nitrogen for (immuno-)histology.
# OCT embedded samples were sectioned with a Leica cryostat. Dermicidin protein was detected using tissue sections fixed in 4% paraformaldehyde, pre-incubated with 10% of goat serum, and incubated with a mouse anti-human Dermcidin (Novus Biologicals, G-81, 1:200). Secondary antibody (Goat anti—mouse Alexa fluor 488) incubation was performed at room temperature for 45 min. Counterstaning with DAPI (1 μg/mL) was performed to visualize nuclei.
# Dermcidin [2] = test: Microarray analysis of human microdissected scalp hair follicles; format: cell-based; details: sandal pentanol 500 μM, 6 hours, vs vehicle (0.1% DMSO)
# Method: as §1, §2
structure (smiles),measurement,setting,value
"CC1=CCC(CCC(C)C(C)O)C1(C)C (stereo not drawn) [Sandalore, 3-methyl-5-(2,2,3-trimethylcyclopent-3-en-1-yl)pentan-2-ol]",Dermcidin protein expression in hair follicle outer root sheath keratinocytes,Dermcidin [1],increased
same,Dermcidin expression increase (microarray),Dermcidin [2],77.6 folds
same,transcripts of AMPs genes (microarray),Dermcidin [2],up-regulated
